The values below come from patent publication US8003785B2 (Takeda Pharmaceutical Company Limited, priority 2008, dated 2011).

This test deals with T1, PLK1 (Homo sapiens, UniProt P53350).
T1 construct: Full-length, active GST-PLK1 is purified from Sf9 insect cells; made in house; host or cells: Sf9 insect cells
Put plainly: Biochemical Characterization Assay: HTRF kinase assay, GST-PLK1 phosphorylation of GST-p53. Particulars: GST-PLK1, GST-p53 substrate. The procedure: Biochemical Characterization Assay
Full-length, active GST-PLK1 is purified from Sf9 insect cells, and full-length GST-p53 is purified from E. coli. Anti-phospho p53 antibody is from Cell Signaling Technology. Europium-conjugated anti-rabbit antibody is from PerkinElmer Life and Analytical Sciences. APC-conjugated anti-GST antibody is from Prozyme.
Six microliters of GST-PLK1 (3 ug/mL) in Kinase Assay Buffer are then added and the solution incubated at 37° C. for 35 minutes. Six microliters of solution containing 43 mM EDTA to stop the reaction and a 1:600 dilution of anti-phospho-p53 antibody in 20 mM HEPES pH 7, 50 mM NaCl, and 0.5 mg/mL BSA (Antibody Binding Buffer) are added and the solution incubated at 37° C. for 30 minutes. […] The HTRF signal is read on an Envision reader from PerkinElmer Life and Analytical Sciences.
(In general: Time-resolved FRET reads energy transfer from a long-lived donor to a nearby acceptor.)

T1 sequence (P53350 whole entry): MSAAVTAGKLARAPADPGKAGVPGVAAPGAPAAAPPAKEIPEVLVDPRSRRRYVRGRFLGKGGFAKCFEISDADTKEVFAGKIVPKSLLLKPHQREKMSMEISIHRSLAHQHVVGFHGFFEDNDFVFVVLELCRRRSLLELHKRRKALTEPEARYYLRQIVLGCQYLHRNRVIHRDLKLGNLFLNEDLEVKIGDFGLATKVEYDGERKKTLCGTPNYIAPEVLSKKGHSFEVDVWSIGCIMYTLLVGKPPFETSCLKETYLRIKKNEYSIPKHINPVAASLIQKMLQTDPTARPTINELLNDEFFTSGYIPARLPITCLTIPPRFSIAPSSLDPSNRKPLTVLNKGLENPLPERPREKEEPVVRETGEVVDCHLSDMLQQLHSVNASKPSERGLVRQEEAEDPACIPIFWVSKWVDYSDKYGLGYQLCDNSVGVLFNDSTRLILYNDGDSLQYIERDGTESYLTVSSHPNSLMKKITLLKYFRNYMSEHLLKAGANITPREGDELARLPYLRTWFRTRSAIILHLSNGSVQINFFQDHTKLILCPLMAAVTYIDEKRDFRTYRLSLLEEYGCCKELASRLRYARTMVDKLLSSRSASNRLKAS

With `COc1cc(C(=O)NCCN(C)C)ccc1Nc1ncc2c(n1)N(C1CCCCC1)CC(F)(F)C(=O)N2C` [Example I-253, 4-(9-cyclohexyl-7,7-difluoro-5-methyl-6-oxo-6,7,8,9-tetrahydro-5H-pyrimido[4,5-b][1,4]diazepin-2-ylamino)-N-(2-dimethylamino-ethyl)-3-methoxy-benzamide], the IC50 (usually the concentration needed to halve the response being measured) is 1 to 50 nM.
The same measure, in the same setting: as for `COc1cc(C(=O)NCCCN(C)C)ccc1Nc1ncc2c(n1)N(CCc1cccs1)CC(F)(F)C(=O)N2C` [Example I-273, 4-[7,7-difluoro-5-methyl-6-oxo-9-(2-thiophen-2-yl-ethyl)-6,7,8,9-tetrahydro-5H-pyrimido[4,5-b][1,4]diazepin-2-ylamino]-N-(3-dimethylamino-propyl)-3-methoxy-benzamide], the figure is 1 to 50 nM; as for `COc1cc(C(=O)O)ccc1Nc1ncc2c(n1)N(C1CCCCC1)CC(F)(F)C(=O)N2C` [Example I-246, 4-(9-cyclohexyl-7,7-difluoro-5-methyl-6-oxo-6,7,8,9-tetrahydro-5H-pyrimido[4,5-b][1,4]diazepin-2-ylamino)-3-methoxy-benzoic acid], 1 to 50 nM.
With `COc1cc(C(=O)NCc2ccoc2)ccc1Nc1ncc2c(n1)N(C1CCCC1)CC(F)(F)C(=O)N2C` [Example I-34, 4-(9-cyclopentyl-7,7-difluoro-5-methyl-6-oxo-6,7,8,9-tetrahydro-5H-pyrimido[4,5-b][1,4]diazepin-2-ylamino)-N-furan-3-ylmethyl-3-methoxy-benzamide], the IC50 (ATP) lay in the range of 1 to 50 nM.
Consider `COc1cc(C(=O)NCC(F)(F)F)ccc1Nc1ncc2c(n1)N(C1CCCC1)CC(F)(F)C(=O)N2C` [Example I-31, 4-(9-cyclopentyl-7,7-difluoro-5-methyl-6-oxo-6,7,8,9-tetrahydro-5H-pyrimido[4,5-b][1,4]diazepin-2-ylamino)-3-methoxy-N-(2,2,2-trifluoro-ethyl)-benzamide], for which, where the note is “ATP”, the IC50 fell in the range of 1 to 50 nM.
For `CN1C(=O)C(F)(F)CN(C2CCCC2)c2nc(Nc3ccc(C(=O)NC4CCOCC4)cc3F)ncc21` [Example I-225, 4-(9-cyclopentyl-7,7-difluoro-5-methyl-6-oxo-6,7,8,9-tetrahydro-5H-pyrimido[4,5-b][1,4]diazepin-2-ylamino)-3-fluoro-N-(tetrahydro-pyran-4-yl)-benzamide], the IC50 fell in the range of 1 to 50 nM.
In the case of `COc1cc(C(=O)NCC2CN(C(=O)OC(C)(C)C)C2)ccc1Nc1ncc2c(n1)N(C1CCCC1)CC(F)(F)C(=O)N2C` [Example I-91, 3-{[4-(9-cyclopentyl-7,7-difluoro-5-methyl-6-oxo-6,7,8,9-tetrahydro-5H-pyrimido[4,5-b][1,4]diazepin-2-ylamino)-3-methoxy-benzoylamino]-methyl}-azetidine-1-carboxylic acid tert-butyl ester], the 50% inhibitory concentration (IC50) (ATP) is 1 to 50 nM.
Under “ATP”, `COc1cc(C(=O)NC2CCN(C(=O)OCC3c4ccccc4-c4ccccc43)CC2)ccc1Nc1ncc2c(n1)N(C1CCCC1)CC(F)(F)C(=O)N2C` [Example I-70, 4-[4-(9-cyclopentyl-7,7-difluoro-5-methyl-6-oxo-6,7,8,9-tetrahydro-5H-pyrimido[4,5-b][1,4]diazepin-2-ylamino)-3-methoxy-benzoylamino]-piperidine-1-carboxylic acid 9H-fluoren-9-ylmethyl ester] came in with a 50% inhibitory concentration (IC50) of 1 to 50 nM.
The molecule `COc1cc(C(=O)NC2CCN(C)CC2)ccc1Nc1ncc2c(n1)N([C@@H]1C[C@H]1c1ccccc1)CC(F)(F)C(=O)N2C` (relative stereo) [Example I-288, 4-[7,7-difluoro-5-methyl-6-oxo-9-(trans-2-phenyl-cyclopropyl)-6,7,8,9-tetrahydro-5H-pyrimido[4,5-b][1,4]diazepin-2-ylamino]-3-methoxy-N-(1-methyl-piperidin-4-yl)-benzamide] registered an IC50 of 51 to 500 nM.
Take `COc1cc(C(=O)NCCCCO)ccc1Nc1ncc2c(n1)N(C1CCCC1)CC(F)(F)C(=O)N2C` [Example I-39, 4-(9-cyclopentyl-7,7-difluoro-5-methyl-6-oxo-6,7,8,9-tetrahydro-5H-pyrimido[4,5-b][1,4]diazepin-2-ylamino)-N-(4-hydroxy-butyl)-3-methoxy-benzamide]: the IC50 (ATP) fell in the range of 1 to 50 nM.
With `CN1C(=O)C(F)(F)CN(C2CCCC2)c2nc(Nc3cc(F)c(C(=O)NC4CCN(C(=O)OC(C)(C)C)CC4)cc3F)ncc21` [Example I-239, 4-[4-(9-cyclopentyl-7,7-difluoro-5-methyl-6-oxo-6,7,8,9-tetrahydro-5H-pyrimido[4,5-b][1,4]diazepin-2-ylamino)-2,5-difluoro-benzoylamino]-piperidine-1-carboxylic acid tert-butyl ester], the half-maximal inhibitory concentration (IC50) fell in the range of 51 to 500 nM.
Consider `COc1cc(C(=O)N[C@@H]2CCN(C(=O)OCc3ccccc3)C[C@H]2O)ccc1Nc1ncc2c(n1)N(C1CCCC1)CC(F)(F)C(=O)N2C` (racemic) [Example I-54, rac-(3R,4R)-4-[4-(9-cyclopentyl-7,7-difluoro-5-methyl-6-oxo-6,7,8,9-tetrahydro-5H-pyrimido[4,5-b][1,4]diazepin-2-ylamino)-3-methoxy-benzoylamino]-3-hydroxy-piperidine-1-carboxylic acid benzyl ester], for which the concentration for half-maximal inhibition (IC50) (ATP) is 51 to 500 nM.
As to `CN1C(=O)C(F)(F)CN(C2CCCC2)c2nc(Nc3cc(F)c(C(N)=O)cc3F)ncc21` [Example I-241, 4-(9-cyclopentyl-7,7-difluoro-5-methyl-6-oxo-6,7,8,9-tetrahydro-5H-pyrimido[4,5-b][1,4]diazepin-2-ylamino)-2,5-difluoro-benzamide], the IC50 fell in the range of 1 to 50 nM.
For the setting “ATP”, `COc1cc(C(=O)NC2CCN(CCF)CC2)ccc1Nc1ncc2c(n1)N(C1CCCC1)CC(F)(F)C(=O)N2C` [Example I-75, 4-(9-cyclopentyl-7,7-difluoro-5-methyl-6-oxo-6,7,8,9-tetrahydro-5H-pyrimido[4,5-b][1,4]diazepin-2-ylamino)-N-[1-(2-fluoro-ethyl)-piperidin-4-yl]-3-methoxy-benzamide] returned an IC50 of 1 to 50 nM.
Turning to `CN1C(=O)C(F)(F)CN(C2CCCC2)c2nc(Nc3ccc(C(N)=O)cc3C(F)(F)F)ncc21` [Example I-213, 4-(9-cyclopentyl-7,7-difluoro-5-methyl-6-oxo-6,7,8,9-tetrahydro-5H-pyrimido[4,5-b][1,4]diazepin-2-ylamino)-3-trifluoromethyl-benzamide], the IC50 lay within 51 to 500 nM.
Consider `COc1cc(C(=O)NN2CCCCC2)ccc1Nc1ncc2c(n1)N(C1CCCC1)CC(F)(F)C(=O)N2C` [Example I-115, 4-(9-cyclopentyl-7,7-difluoro-5-methyl-6-oxo-6,7,8,9-tetrahydro-5H-pyrimido[4,5-b][1,4]diazepin-2-ylamino)-3-methoxy-N-piperidin-1-yl-benzamide], for which, for the setting “ATP”, the IC50 lay within 1 to 50 nM.
`Cc1cc(C(=O)NCCCN(C)C)ccc1Nc1ncc2c(n1)N(C1CCCC1)CC(F)(F)C(=O)N2C` [Example I-189, 4-(9-cyclopentyl-7,7-difluoro-5-methyl-6-oxo-6,7,8,9-tetrahydro-5H-pyrimido[4,5-b][1,4]diazepin-2-ylamino)-N-(3-dimethylamino-propyl)-3-methyl-benzamide]: the half-inhibitory concentration (IC50) lay in the range of 1 to 50 nM.
Molecule `COc1cc(C(=O)NCCCN(C)C)c(F)cc1Nc1ncc2c(n1)N(C1CCCC1)CC(F)(F)C(=O)N2C` [Example I-172, 4-(9-cyclopentyl-7,7-difluoro-5-methyl-6-oxo-6,7,8,9-tetra-hydro-5H-pyrimido[4,5-b][1,4]diazepin-2-ylamino)-N-(3-dimethylamino-propyl)-2-fluoro-5-methoxy-benzamide] yielded a half-maximal inhibitory concentration (IC50) of 1 to 50 nM.
For the molecule `CC(C)Oc1cc(C(=O)NC2CCN(C)CC2)ccc1Nc1ncc2c(n1)N(C1CCCC1)CC(F)(F)C(=O)N2C` [Example I-180, 4-(9-cyclopentyl-7,7-difluoro-5-methyl-6-oxo-6,7,8,9-tetrahydro-5H-pyrimido[4,5-b][1,4]diazepin-2-ylamino)-3-isopropoxy-N-(1-methyl-piperidin-4-yl)-benzamide], the IC50 was in the range of 1 to 50 nM.
`COc1cc(C(=O)NC2CCN(C)CC2)ccc1Nc1ncc2c(n1)N(CCCc1ccccc1)CC(F)(F)C(=O)N2C` [Example I-282, 4-[7,7-difluoro-5-methyl-6-oxo-9-(3-phenyl-propyl)-6,7,8,9-tetrahydro-5H-pyrimido[4,5-b][1,4]diazepin-2-ylamino]-3-methoxy-N-(1-methyl-piperidin-4-yl)-benzamide] returned an IC50 of 1 to 50 nM.
`COc1cc(C(=O)NCCCN2CCN(C)CC2)ccc1Nc1ncc2c(n1)N(C1CCCC1)CC(F)(F)C(=O)N2C` [Example I-87, 4-(9-cyclopentyl-7,7-difluoro-5-methyl-6-oxo-6,7,8,9-tetrahydro-5H-pyrimido[4,5-b][1,4]diazepin-2-ylamino)-3-methoxy-N-[3-(4-methyl-piperazin-1-yl)-propyl]-benzamide] yielded an IC50 (ATP) of 1 to 50 nM.
Regarding `COc1cc(C(=O)N[C@H]2CC[C@H](O)CC2)ccc1Nc1ncc2c(n1)N(C1CCCC1)CC(F)(F)C(=O)N2C` [Example I-69, trans-4-(9-cyclopentyl-7,7-difluoro-5-methyl-6-oxo-6,7,8,9-tetrahydro-5H-pyrimido[4,5-b][1,4]diazepin-2-ylamino)-N-(4-hydroxy-cyclohexyl)-3-methoxy-benzamide], the IC50 (ATP) lay in the range of 1 to 50 nM.
The same measure, in the same setting: as for `COc1cc(C(=O)N[C@H]2CC[C@@H](N)CC2)ccc1Nc1ncc2c(n1)N(C1CCCC1)CC(F)(F)C(=O)N2C` [Example I-98, cis-N-(4-amino-cyclohexyl)-4-(9-cyclopentyl-7,7-difluoro-5-methyl-6-oxo-6,7,8,9-tetrahydro-5H-pyrimido[4,5-b][1,4]diazepin-2-ylamino)-3-methoxy-benzamide], the figure is 1 to 50 nM.
